Assay results from publication PMC8587515, “Cytotoxic and Anti-Inflammatory Activities of Dihydroisocoumarin and Xanthone Derivatives from Garcinia picrorhiza” (Molecules, 2021).
Where two headings read alike, the source gives them in different places.

Assays:
[1] = target: T1, COX-2 (human recombinant PGHS-2) (Homo sapiens, UniProt P35354); assay: COX-2 enzyme inhibition assay (PGE2 ELISA); assay type: biochemical; conditions: mean ± SD (n = 4)
T1 construct: purchased Cayman Chemical Co., Ann Arbor, MI, USA
T1 sequence (P35354 18-604): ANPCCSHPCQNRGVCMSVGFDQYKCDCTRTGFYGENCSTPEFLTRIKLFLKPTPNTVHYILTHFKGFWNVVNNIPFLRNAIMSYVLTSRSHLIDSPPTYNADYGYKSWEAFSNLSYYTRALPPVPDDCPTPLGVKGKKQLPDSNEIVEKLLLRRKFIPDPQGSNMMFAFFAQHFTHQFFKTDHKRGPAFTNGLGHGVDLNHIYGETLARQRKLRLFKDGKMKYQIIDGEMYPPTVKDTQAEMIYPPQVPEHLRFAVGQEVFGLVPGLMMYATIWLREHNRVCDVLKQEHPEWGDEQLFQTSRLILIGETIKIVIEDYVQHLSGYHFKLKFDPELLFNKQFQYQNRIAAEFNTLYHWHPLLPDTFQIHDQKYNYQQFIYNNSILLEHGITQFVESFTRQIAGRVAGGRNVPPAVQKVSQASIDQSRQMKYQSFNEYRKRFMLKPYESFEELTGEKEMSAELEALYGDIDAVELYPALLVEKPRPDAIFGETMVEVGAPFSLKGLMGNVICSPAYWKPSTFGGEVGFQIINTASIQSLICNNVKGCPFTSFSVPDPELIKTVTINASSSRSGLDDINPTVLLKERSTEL
Description: The anti-inflammatory effects of the isolated compounds were also screened on COX-1 and COX-2 enzymes inhibition at a final concentration of 20 µM.
Purified PGHS-1 from ram seminal vesicles for COX-1 and human recombinant PGHS-2 for COX-2 (Cayman Chemical Co., Ann Arbor, MI, USA) were used for the COX inhibition assays. Experiments were performed in a 96-well plate format, as previously described. Briefly, the incubation mixture contained 180 µL of 0.1 M TRIS/HCl-buffer pH 8.0 (Roth, Karlsruhe, Germany), 50 µM Na2EDTA (only for COX-2, Titriplex III, Merck, Darmstadt, Germany), 18 mM L-epinepherine bitartrate (Fluka, Buchs, Switzerland), 5 µM porcine hematin (MP Biomedicals LLC, Solon, OH, USA), and COX-1 or COX-2 enzymes (0.2 U/well). Ten microliters of tested compounds (dissolved in DMSO with a final concentration of 20 µM) was added and the mixture was pre-incubated for 5 min at room temperature. Thereafter, 10 µL of 5 µM arachidonic acid (Ann Arbor, Michigan USA) was added to the mixture and incubated for 20 min at 37 °C. The reaction was subsequently stopped by adding 10 µL of 10% (v/v) formic acid. The concentration of PGE2 generated in the reaction was quantitatively measured by a competitive PGE2 ELISA kit (Enzo Life Sciences Inc., Farmingdale, NY, USA) according to the manufacturer’s protocol and previous procedure. The absorbance at 405 nm was measured using a Hidex Sense Microplate Reader (Hidex, Turku, Finland). […] The assays were performed in duplicates and repeated in two independent experiments.

[2] = test system: KB (human epidermoid carcinoma); set-up: method as in PMID 30153471, PMID 33999337; conditions: MTT; results based on previous work; read-out: IC50 ± SEM, KB; cited from earlier work
[3] = test system: HeLa S3 (human cervical carcinoma); set-up: method as in PMID 30153471, PMID 33999337; conditions: MTT; results based on previous work; read-out: IC50 ± SEM, HeLa S3; cited from earlier work
[4] = test system: MCF-7 (human breast adenocarcinoma); set-up: method as in PMID 30153471, PMID 33999337; conditions: MTT; results based on previous work; read-out: IC50 ± SEM, MCF-7; cited from earlier work
[5] = test system: Hep G2 (human hepatocellular carcinoma); set-up: method as in PMID 30153471, PMID 33999337; conditions: MTT; results based on previous work; read-out: IC50 ± SEM, Hep G2; cited from earlier work
[6] = test system: four cancer cells (KB, HeLa S3, MCF-7, and Hep G2); conditions: HeLa S3, MCF-7, Hep G2, earlier studies, read-out: IC50 values against four cancer cells; cited from earlier work
[7] = test system: KB (human epidermoid carcinoma); assay: MTT cytotoxic activity assay, KB; assay type: cell-based; conditions: 72 h, mean ± SEM of three replicates
Description: (§1) The cytotoxic activity of the isolated compounds was evaluated using the MTT viability assay with doxorubicin as the positive control and the results are presented in Table 2.
(§2) The MTT colorimetric method was performed to evaluate cytotoxic activity of the isolated compounds against human epidermoid carcinoma (KB; ATCC CCL17), human cervical carcinoma (HeLa S3; ATCC CCL2-2), human colon adenocarcinoma (HT-29; ATCC HTB-38), human breast adenocarcinoma (MCF-7; ATCC HTB-22), and human hepatocellular carcinoma (Hep G2; ATCC HB-8065) cell lines according to the previous method. The cancer cells were cultured in MEM containing 10% fetal bovine serum in the presence of 100 U/mL penicillin and 100 μg/mL streptomycin sulphate (Gibco, Rockville, MD, USA), seeded in a 96-well plate (3000 cells/well), and pre-incubated at 37 °C for 24 h in a 5% CO2 humidified atmosphere. The tested compounds with serial concentrations (0.3–100 μM) were added and incubated for a further 72 h in the same condition. At the end of treatment, 20 µL of MTT solution (5 mg/mL in PBS, Sigma, St. Louis, MI, USA) was added to each well and further incubated for 3 h. After centrifugation at 1400 rpm for 5 min at 4 °C, the supernatant was decanted and DMSO (100 µL/well) was added to allow formazan product solubilization, which was subsequently measured by a microplate reader (Tecan Trading AG, Switzerland) at wavelength 550 nm. Control cells were treated with 0.1% DMSO. Doxorubicin (tested concentrations: 0.01–3.0 μM, Sigma) was used as the positive control. The results are expressed as the mean values of three replicates for three independent experiments. IC50 values were determined by graphical analysis using SigmaPlot 10 (Systat Software Inc., San Jose, CA, USA), obtained by plotting the cell viability percentage versus sample concentration.

[8] = test system: HeLa S3 (human cervical carcinoma); assay: MTT cytotoxic activity assay, HeLa S3; assay type: cell-based; conditions: 72 h, mean ± SEM of three replicates
Description: as §1, §2

[9] = test system: MCF-7 (human breast adenocarcinoma); assay: MTT cytotoxic activity assay, MCF-7; assay type: cell-based; conditions: MCF7, 72 h, mean ± SEM of three replicates
Description: as §1
(§3) The MTT colorimetric method was performed to evaluate cytotoxic activity of the isolated compounds against human epidermoid carcinoma (KB; ATCC CCL17), human cervical carcinoma (HeLa S3; ATCC CCL2-2), human colon adenocarcinoma (HT-29; ATCC HTB-38), human breast adenocarcinoma (MCF-7; ATCC HTB-22), and human hepatocellular carcinoma (Hep G2; ATCC HB-8065) cell lines according to the previous method. […] After centrifugation at 1400 rpm for 5 min at 4 °C, the supernatant was decanted and DMSO (100 µL/well) was added to allow formazan product solubilization, which was subsequently measured by a microplate reader (Tecan Trading AG, Switzerland) at wavelength 550 nm. […] The results are expressed as the mean values of three replicates for three independent experiments. IC50 values were determined by graphical analysis using SigmaPlot 10 (Systat Software Inc., San Jose, CA, USA), obtained by plotting the cell viability percentage versus sample concentration.

[10] = test system: Hep G2 (human hepatocellular carcinoma); assay: MTT cytotoxic activity assay, Hep G2; assay type: cell-based; conditions: HepG2, 72 h, mean ± SEM of three replicates
Description: as §1, §3

[11] = test system: HT-29 (human colon adenocarcinoma); assay: MTT cytotoxic activity assay, HT-29; assay type: cell-based; conditions: 72 h, mean ± SEM of three replicates
Description: as §1, §3

SMILES | inhibition at 20 µM [1] [%] | IC50 [2] [µM] | IC50 [3] [µM] | IC50 [4] [µM] | IC50 [5] [µM] | IC50 [6] [µM] | IC50 [7] [µM] | IC50 [8] [µM] | IC50 [9] [µM] | IC50 [10] [µM] | IC50 [11] [µM]
C[C@@H]1Oc2cc(O)c3c(=O)c4ccc(O)c(O)c4oc3c2C1(C)C [Compound 7, 2-deprenylrheediaxanthone B] | < 10 | 5.1 ± 0.4 | 6 ± 0.5 | 6.5 ± 0.2 | 10 ± 0.2 | < 10 |  |  |  |  | 
C[C@H]1Oc2c(c(O)c3c(=O)c4ccc(O)c(O)c4oc3c2CCC(C)(C)O)C1(C)C [Compound 4, gerontoxanthone C hydrate] | < 10 |  |  |  |  |  | 7.5 ± 0.8 | 5.6 ± 0.1 | 5.7 ± 0.3 | 6.3 ± 0.6 | 20.3 ± 0.6
